Columns and labels:
Format in all cases: in vivo
[1] = system: Amaranthus retoflexus (AMARE); assay: Pre-emergence herbicide glasshouse test; settings: pre-emergence (sprayed after one day cultivation), 250 g/ha, evaluated after 13 days
Experimental: (§1) Seeds of a variety of test species are sown in standard soil in pots Amaranthus retoflexus (AMARE), Echinochloa crus-galli (ECHCG), Setaria faberi (SETFA)). After cultivation for one day (pre-emergence) or after 8 days cultivation (post-emergence) under controlled conditions in a glasshouse (at 24/16° C., day/night; 14 hours light; 65% humidity), the plants are sprayed with an aqueous spray solution derived from the formulation of the technical active ingredient in acetone/water (50:50) solution containing 0.5% Tween 20 (polyoxyethelyene sorbitan monolaurate, CAS RN 9005-64-5). Compounds are applied at 250 g/ha unless otherwise stated. The test plants are then grown in a glasshouse under controlled conditions in a glasshouse (at 24/16° C., day/night; 14 hours light; 65% humidity) and watered twice daily. After 13 days for pre and post-emergence, the test is evaluated for the percentage damage caused to the plant. The biological activities are shown in the following table on a five-point scale (5=81-100%; 4=61-80%; 3=41-60%; 2=21-40%; 1=0-20%).

Setaria faberi (SETFA) [2] = assay: Pre-emergence herbicide glasshouse test; settings: pre-emergence (sprayed after one day cultivation), 250 g/ha, evaluated after 13 days
Experimental: as §1

[3] = system: Echinochloa crus-galli (ECHCG); assay: Pre-emergence herbicide glasshouse test; settings: pre-emergence (sprayed after one day cultivation), 250 g/ha, evaluated after 13 days
Experimental: as §1

[4] = system: Amaranthus retoflexus (AMARE); assay: Post-emergence herbicide glasshouse test; settings: post-emergence (sprayed after 8 days cultivation), 250 g/ha, evaluated after 13 days
Experimental: as §1

Setaria faberi (SETFA) [5] = assay: Post-emergence herbicide glasshouse test; settings: post-emergence (sprayed after 8 days cultivation), 250 g/ha, evaluated after 13 days
Experimental: as §1

[6] = system: Echinochloa crus-galli (ECHCG); assay: Post-emergence herbicide glasshouse test; settings: post-emergence (sprayed after 8 days cultivation), 250 g/ha, evaluated after 13 days
Experimental: as §1

SMILES	percentage damage caused to the plant, five-point scale, AMARE [1]	percentage damage caused to the plant, five-point scale, SETFA (Setaria faberi (SETFA) [2])	percentage damage caused to the plant, five-point scale, ECHCG [3]	percentage damage caused to the plant, five-point scale, AMARE [4]	percentage damage caused to the plant, five-point scale, SETFA (Setaria faberi (SETFA) [5])	percentage damage caused to the plant, five-point scale, ECHCG [6]
Cc1cnc(Oc2cccc3nc(C(F)(F)F)nc(CCCC(F)(F)F)c23)nc1 [Compound 1.020]	5 (5=81-100%)	5 (5=81-100%)	5 (5=81-100%)	4 (4=61-80%)	5 (5=81-100%)	5 (5=81-100%)
FC(F)(F)CCOc1nccc2cccc(Oc3ncc(Cl)cn3)c12 [Compound 1.009]	1 (1=0-20%)	1 (1=0-20%)	1 (1=0-20%)	1 (1=0-20%)	1 (1=0-20%)	1 (1=0-20%)
CCCCCCc1nc(CCCC(F)(F)F)c2c(Oc3ncc(Cl)cn3)cccc2n1 [Compound 1.032]	4 (4=61-80%)	4 (4=61-80%)	4 (4=61-80%)	5 (5=81-100%)	3 (3=41-60%)	3 (3=41-60%)
FC(F)(F)CCOc1nc(C(F)(F)F)nc2cccc(Oc3ncc(Cl)cn3)c12 [Compound 1.006, 5-(5-chloropyrimidin-2-yl)oxy-2-(trifluoromethyl)-4-(3,3,3-trifluoropropoxy)quinazoline]	5 (5=81-100%)	5 (5=81-100%)	3 (3=41-60%)	5 (5=81-100%)	3 (3=41-60%)	3 (3=41-60%)
Cc1nc(CCCC(F)(F)F)c2c(Oc3ncc(Cl)cn3)ccc(Cl)c2n1 [Compound 1.019, 8-chloro-5-(5-chloropyrimidin-2-yl)oxy-2-methyl-4-(4,4,4-trifluorobutyl)quinazoline]	2 (2=21-40%)	4 (4=61-80%)	4 (4=61-80%)	4 (4=61-80%)	2 (2=21-40%)	3 (3=41-60%)
FC(F)(F)CCOc1ncnc2cccc(Oc3ncc(Cl)cn3)c12 [Compound 1.008]	5 (5=81-100%)	5 (5=81-100%)	1 (1=0-20%)	3 (3=41-60%)	1 (1=0-20%)	1 (1=0-20%)
C=CCCc1nc(C(F)(F)F)nc2cccc(Oc3ncc(Cl)cn3)c12 [Compound 1.028, 4-but-3-enyl-5-(5-chloropyrimidin-2-yl) oxy-2 (trifluoromethyl)quinazoline]	4 (4=61-80%)	5 (5=81-100%)	5 (5=81-100%)	5 (5=81-100%)	4 (4=61-80%)	4 (4=61-80%)
Cc1nc(CCCC(F)(F)F)c2c(Oc3ncc(Cl)cn3)cccc2n1 [Compound 1.013, 5-(5-chloropyrimidin-2-yl)oxy-2-methyl-4-(4,4,4-trifluorobutyl)quinazoline]	3 (3=41-60%)	5 (5=81-100%)	4 (4=61-80%)	3 (3=41-60%)	4 (4=61-80%)	4 (4=61-80%)

From patent US20240032541A1, “HERBICIDAL COMPOUNDS” (SYNGENTA CROP PROTECTION AG, priority 2020, published 2024)
